In publication PMC7005262, “Complete structure of the chemosensory array core signalling unit in an E. coli minicell strain” (Nature Communications, 2020):

Target: T1, Tsr (Escherichia coli, UniProt P02942)
T1 construct: mixed adaptational modification states, CheR and CheB present; read-out by plasmid-borne CheY-YFP/CheZ-CFP
Experiment: in vivo FRET kinase assay (CheY-YFP/CheZ-CFP), inhibition of receptor-coupled CheA activity, multi-site Hill fit
Type: cell-based
Details: intact WM4196 minicells, motility buffer pH 7.0, adaptation enzymes CheR and CheB present; attractant at the periplasmic domain; read-out: K1/2

T1 sequence (P02942 whole entry): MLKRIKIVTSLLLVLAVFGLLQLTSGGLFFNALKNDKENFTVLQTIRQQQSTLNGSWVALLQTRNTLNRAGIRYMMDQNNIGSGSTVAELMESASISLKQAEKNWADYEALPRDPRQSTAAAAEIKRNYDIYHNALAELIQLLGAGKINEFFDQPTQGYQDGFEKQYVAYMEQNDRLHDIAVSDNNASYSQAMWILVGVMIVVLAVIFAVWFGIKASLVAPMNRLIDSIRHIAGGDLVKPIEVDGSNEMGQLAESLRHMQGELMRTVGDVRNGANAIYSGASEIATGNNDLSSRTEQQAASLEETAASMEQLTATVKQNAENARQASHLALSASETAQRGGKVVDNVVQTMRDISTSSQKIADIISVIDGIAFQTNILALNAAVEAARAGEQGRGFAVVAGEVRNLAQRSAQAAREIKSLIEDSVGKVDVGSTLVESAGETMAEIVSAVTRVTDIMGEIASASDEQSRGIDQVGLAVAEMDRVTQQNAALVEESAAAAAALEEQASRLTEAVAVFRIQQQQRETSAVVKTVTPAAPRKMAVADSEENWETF

Question: With N[C@@H](CO)C(=O)O [serine] as the compound, how does the EC50 read?
Answer: 0.4 µM
